The source of these data is the RepoRT retention time repository (doi:10.1007/s00216-021-03828-0).

Common to all, as to conditions: stereoisomer not certain
Data set [1] can be described thus: RP, Merck Supelco Ascentis Express C18, 100 × 2.1 mm, 2 µm, 40 °C, 0.2 mL/min, estimated dead time 1.1 min; A: water + 0.1% formic acid, pH 3; B: acetonitrile + 0.1% formic acid, pH 3; gradient (min/%B) 0/5 2/5 17/99.9 20/99.9.
Assay in data set [2]: as above
The source holds these as a separate data set.

Data set [3] can be described thus: RP, Merck Supelco Ascentis Express C18, 100 × 2.1 mm, 2 µm, 40 °C, 0.4 mL/min, estimated dead time 0.55 min; A: water + 0.1% formic acid, pH 3; B: acetonitrile + 0.1% formic acid, pH 3; gradient (min/%B) 0/5 2/5 17/99.9 20/99.9.
Assay in data set [4]: as above
This is another data set of the same source.

The nature of data set [5]: RP, Merck Supelco Ascentis Express C18, 100 × 2.1 mm, 2 µm, 39 °C, 0.3 mL/min, estimated dead time 0.73 min; A: water + 0.1% formic acid, pH 3; B: acetonitrile + 0.1% formic acid, pH 3; gradient (min/%B) 0/5 2/5 17/99.9 20/99.9.
The nature of data set [6]: RP, Merck Supelco Ascentis Express C18, 100 × 2.1 mm, 2 µm, 40 °C, 0.25 mL/min, estimated dead time 0.88 min; A: water + 0.1% formic acid, pH 3; B: acetonitrile + 0.1% formic acid, pH 3; gradient (min/%B) 0/5 2/5 17/99.9 20/99.9.
A short description of data set [7]: RP, Merck Supelco Ascentis Express C18, 100 × 2.1 mm, 2 µm, 40 °C, 0.35 mL/min, estimated dead time 0.63 min; A: water + 0.1% formic acid, pH 3; B: acetonitrile + 0.1% formic acid, pH 3; gradient (min/%B) 0/5 2/5 17/99.9 20/99.9.

`O=C(O)c1ccc(O)c(O)c1` [3,4-DIHYDROXYBENZOATE]: the LC retention time in data set [1] is 3.05 min; in data set [2], 3.06 min; in data set [3], 1.53 min; in data set [4], 1.52 min; in data set [5], 2.06 min; in data set [6], 2.44 min. Also, the LC retention time in data set [7] was 1.76 min.
Regarding `O=C(O)Cc1ccc(O)c(O)c1` [3,4-DIHYDROXYPHENYLACETATE], the LC retention time in data set [1] was 3.97 min; in data set [2] it was 3.92 min; in data set [3] it was 1.95 min; in data set [4], 2.02 min; in data set [5] it was 2.67 min; in data set [6], 3.22 min. In data set [7], the LC retention time is 2.32 min.
Turning to `N[C@@H](Cc1cc(I)c(Oc2ccc(O)cc2)c(I)c1)C(=O)O` [3,5-DIIODO-L-THYRONINE], the LC retention time in data set [1] is 7.21 min; in data set [2] it was 7.22 min; in data set [3] it was 6.02 min; in data set [4] it was 5.98 min; in data set [5], 6.45 min; in data set [6], 6.77 min. Moreover, in data set [7], the LC retention time was 6.19 min.
Take `N[C@@H](Cc1cc(I)c(O)c(I)c1)C(=O)O` [3,5-DIIODO-L-TYROSINE]: the LC retention time in data set [1] was 5.38 min; in data set [2], 5.37 min; in data set [3], 4.07 min; in data set [4], 4.03 min; in data set [5], 4.54 min; in data set [6] it was 4.89 min. In data set [7], the LC retention time was 4.26 min.
In the case of `O=C(O)CCc1ccccc1O` [3-(2-HYDROXYPHENYL)PROPANOATE], the LC retention time was 6.72 min in data set [1]; 12.1 min in data set [2]; 5.13 min in data set [3]; 5.08 min in data set [4]; 5.72 min in data set [5]; 6.14 min in data set [6]. Moreover, the LC retention time in data set [7] was 5.36 min.
On to `CC(O)(CC(=O)O)CC(=O)O` [3-HYDROXYMETHYLGLUTARATE], for which the LC retention time in data set [1] was 1.59 min; in data set [2], 1.6 min; in data set [3], 0.773 min; in data set [4] it was 0.76 min; in data set [5], 1.06 min; in data set [6], 1.26 min. The LC retention time in data set [7] is 0.893 min.
As to `O=C(O)Cc1cccc(O)c1` [3-HYDROXYPHENYLACETATE], the LC retention time in data set [1] was 7.01 min; in data set [2] it was 7 min; in data set [3] it was 5.17 min; in data set [4], 5.14 min; in data set [5] it was 5.94 min; in data set [6], 6.34 min. Moreover, the LC retention time in data set [7] was 5.5 min.
As for `N[C@@H](Cc1ccc(O)c([N+](=O)[O-])c1)C(=O)O` [3-NITRO-L-TYROSINE], the LC retention time in data set [1] is 2.7 min; in data set [2], 2.72 min; in data set [3], 1.35 min; in data set [4], 1.35 min; in data set [5], 1.78 min; in data set [6], 2.14 min. For the same compound, the LC retention time in data set [7] is 1.56 min.
For the compound `CC(=O)NCCCC(=O)O` [4-ACETAMIDOBUTANOATE], the LC retention time in data set [1] is 1.63 min; in data set [2], 1.63 min; in data set [3], 0.8 min; in data set [4], 0.783 min; in data set [5], 1.07 min; in data set [6], 1.29 min. Further, the LC retention time in data set [7] is 0.923 min.
Consider `O=C(O)C=Cc1ccc(O)cc1` [4-COUMARATE], for which the LC retention time was 6.26 min in data set [1]; 6.25 min in data set [2]; 4.68 min in data set [3]; 4.64 min in data set [4]; 5.3 min in data set [5]; 5.68 min in data set [6]. For the same compound, the LC retention time in data set [7] is 4.94 min.
Turning to `O=Cc1ccc(O)cc1` [4-HYDROXYBENZALDEHYDE], the LC retention time in data set [1] was 5.47 min; in data set [2], 5.46 min; in data set [3], 3.64 min; in data set [4], 3.59 min; in data set [5] it was 4.34 min; in data set [6], 4.82 min. The LC retention time in data set [7] is 3.94 min.
On to `O=C(O)c1ccc(O)cc1` [4-HYDROXYBENZOATE], for which the LC retention time is 4.53 min in data set [1]; 4.53 min in data set [2]; 2.59 min in data set [3]; 2.54 min in data set [4]; 3.42 min in data set [5]; 3.91 min in data set [6]. In data set [7], the LC retention time was 2.94 min.
Regarding `Cc1ncc(CO)c(C(=O)O)c1O` [4-PYRIDOXATE], the LC retention time in data set [1] was 1.57 min; in data set [2], 1.57 min; in data set [3], 0.767 min; in data set [4], 0.757 min; in data set [5], 1.02 min; in data set [6], 1.23 min. Also, in data set [7], the LC retention time was 0.877 min.
As for `O=C(O)c1ccnc2ccccc12` [4-QUINOLINECARBOXYLATE], the LC retention time in data set [1] is 1.57 min; in data set [2], 1.6 min; in data set [3], 0.773 min; in data set [4], 0.763 min; in data set [5] it was 1.04 min; in data set [6] it was 1.26 min. Moreover, the LC retention time in data set [7] is 0.88 min.
`CC1OC(n2cnc3c(N)ncnc32)C(O)C1O` (stereo unspecified) [5'-DEOXYADENOSINE]: the LC retention time was 1.89 min in data set [1]; 1.92 min in data set [2]; 0.95 min in data set [3]; 0.937 min in data set [4]; 1.24 min in data set [5]; 1.49 min in data set [6]. For the same compound, in data set [7], the LC retention time is 1.09 min.
In the case of `Cc1cc2nc[nH]c2cc1C` [5,6 DIMETHYLBENZIMIDAZOLE], the LC retention time in data set [1] is 5.16 min; in data set [2], 5.17 min; in data set [3], 3.79 min; in data set [4] it was 3.76 min; in data set [5], 4.28 min; in data set [6], 4.67 min. Further, the LC retention time in data set [7] is 4 min.
For the compound `O=C(O)Cc1c[nH]c2ccc(O)cc12` [5-HYDROXYINDOLEACETATE], the LC retention time in data set [1] was 4.78 min; in data set [2], 4.79 min; in data set [3], 3.19 min; in data set [4], 3.17 min; in data set [5], 3.83 min; in data set [6], 4.23 min. Further, in data set [7], the LC retention time is 3.47 min.
As for `NC(Cc1c[nH]c2ccc(O)cc12)C(=O)O` (stereo unspecified) [5-HYDROXYTRYPTOPHAN], the LC retention time was 1.75 min in data set [1]; 1.71 min in data set [2]; 0.853 min in data set [3]; 0.81 min in data set [4]; 1.1 min in data set [5]; 1.35 min in data set [6]. In addition, the LC retention time in data set [7] is 0.993 min.
Consider `O=C(O)CCCCCC(=O)O` [6-CARBOXYHEXANOATE], for which the LC retention time in data set [1] is 5.14 min; in data set [2], 5.13 min; in data set [3], 3.66 min; in data set [4], 3.63 min; in data set [5] it was 4.22 min; in data set [6] it was 4.61 min. Moreover, the LC retention time in data set [7] was 3.89 min.
Regarding `O=C(O)c1ccc(=O)[nH]c1` [6-HYDROXYNICOTINATE], the LC retention time in data set [1] is 1.59 min; in data set [2] it was 1.59 min; in data set [3] it was 0.787 min; in data set [4], 0.773 min; in data set [5], 1.06 min; in data set [6] it was 1.26 min. Also, the LC retention time in data set [7] was 0.887 min.
For the compound `O=C(O)CCCCCCCCCO` [10-HYDROXYDECANOATE], the LC retention time in data set [1] was 8.03 min; in data set [2], 8.02 min; in data set [3] it was 6.58 min; in data set [4], 6.55 min; in data set [5], 7.1 min; in data set [6], 7.49 min. Also, in data set [7], the LC retention time was 6.8 min.
In the case of `Nc1ccccc1S(=O)(=O)O` [ANILINE-2-SULFONATE], the LC retention time in data set [1] was 1.74 min; in data set [2], 1.76 min; in data set [3], 0.847 min; in data set [4], 0.823 min; in data set [5] it was 1.18 min; in data set [6] it was 1.38 min. Also, the LC retention time in data set [7] was 0.95 min.
Regarding `O=C(O)CCCCCCCC(=O)O` [AZELATE], the LC retention time in data set [1] is 6.98 min; in data set [2], 6.89 min; in data set [3], 5.57 min; in data set [4], 5.49 min; in data set [5], 6.09 min; in data set [6], 6.39 min. Also, the LC retention time in data set [7] was 5.73 min.
